# Assay results taken from patent publication US8465788B2, “Arabinoxylans for modulating the barrier function of the intestinal surface” (BioActor B.V., priority 2008, dated 2013).
# Experiments:
# [1] = system: fecal microbial community; experiment: SHIME in vitro gastrointestinal model: short chain fatty acid (A, P, B) ratios; format: cell-based, human; details: for A ratio (A/(A + P + B)), Ascending colon / A ratio, Descending colon / A ratio, Transverse colon / B ratio, Ascending colon / B ratio, Descending colon / B ratio, Transverse colon / P ratio, Ascending colon / P ratio, Descending colon / P ratio, Transverse colon: TWINSHIME
# From the text: In Vitro Gastrointestinal Model—the Simulator of the Human Intestinal Microbial Ecosystem (SHIME)
# The reactor setup was adapted from the SHIME, representing the gastrointestinal tract of the adult human, as described by Molly et al. (Molly, Woestyne et al. 1993). The SHIME consists of a succession of five reactors simulating the different parts of the human gastrointestinal tract. The first two reactors are of the fill-and-draw principle to simulate different steps in food uptake and digestion, with peristaltic pumps adding a defined amount of SHIME feed (140 mL 3×/day) and pancreatic and bile liquid (60 mL 3×/day), respectively to the stomach (V1) and duodenum (V2) compartment and emptying the respective reactors after specified intervals. The last three compartments are continuously stirred reactors with constant volume and pH control. Retention time and pH of the different vessels are chosen in order to resemble in vivo conditions in the different parts of the gastrointestinal tract. The overall residence time of the last three vessels, simulating the large intestine, is 76 h. Upon inoculation with fecal microbiota, these reactors simulate the ascending (V3), transverse (V4) and descending (V5) colon. Inoculum preparation, retention time, pH, temperature settings and reactor feed composition were previously described by Possemiers et al. (Possemiers, Verthe et al. 2004). In the comparison with of AX with inulin, two systems with identical environmental conditions (identical pH and temperature control) were run in parallel.
# For the evaluation of the 2 prebiotics, the colon compartments of the SHIME reactors were first inoculated with an isolated fecal microbial community of a selected healthy volunteer. The SHIME reactor was operated under nominal conditions to stabilize the microbial community and let it adapt its metabolic activity and community composition to the conditions prevailing in the respective colon compartments. This stabilization period lasted for 3 weeks.
# During the basal period, the SHIME reactor was operated under nominal conditions. Parameters such as short chain fatty acid (SCFA) production and ammonium production were determined 3 times/week. The results of these analyses served as the background values to be used to compare the measured parameters from the treatment period. The basal period lasted 2 weeks.
# During the treatment period, the SHIME reactor was operated under nominal conditions, but with a modified diet containing a lower amount of starch in the medium compared to that of the basal period. In parallel, the ascending colon compartment of the first SHIME received inulin, whereas the second SHIME received AX. Both compounds were added in low doses of 1.5 g/d. SCFA and ammonium production were determined 3 times/week. This treatment period typically lasts for 3 weeks.
# During the washout period, the SHIME reactor was operated under nominal conditions, with the initial diet. SCFA and ammonium production were determined 3 times/week. Analysis of these parameters allowed to assess whether possible changes from the treatment period normalize again to the levels of the basal period.
# As acetate (A), propionate (P) and butyrate (B) are the main fatty acids produced by intestinal bacteria, the results are expressed as the ratio of each fatty acid to the sum of the 3 fatty acids.
# bifidobacteria = experiment: DGGE fingerprint of the bifidobacterial community in the cecum of human-microbiota associated rats; format: in vivo, rat; details: 10% in diet, three weeks
# From the text: FIG. 3 DGGE (Denaturing Gradient Gel Electrophoresis) fingerprint profiles of the community of bifidobacteria in the cecum of three groups of human-microbiota associated rats (n=8/group) treated for 3 weeks with a control diet, inulin (10%) or AX (10%). The profiles were obtained after amplification of the bifidobacterial community using group-specific PCR primers.
# Three groups of eight rats with human associated microbiotia were used in the experiment: • Control • Inulin • AX
# During three weeks animals were treated with either 10% inulin, AX or a control diet (=5% sugar+5% cornstarch) in order to compare the prebiotic effects of both oligosaccharides. At the end of the three weeks, the animals were euthanized.
# In addition to this, the composition of the bifidobacterial community in the cecum was monitored by Denaturing Gradient Gel Electrophoresis (DGGE) (FIG. 3). […] Bifidobacterium longum is one of most important inhabitants in the human body. This bacterium is very helpful because it maintains a normal digestive tract, inhibits the growth of harmful bacteria, and also boosts the immune system (Reinert, Birgit. “Friendly tenants in the human gut: The genome of B. longum”. 2002. Genome News Network).
# intestinal bacteria = experiment: Prebiotic Index (gut lumen) and Prebiotic Attachment Index (gut wall mucus) in TWINSHIME; format: cell-based, human; details: from day 23, TWINSHIME
# Method: FIG. 4 Prebiotic Index (PI) and Prebiotic Attachment Index (PAI) before, during and after treatment with respectively inulin and AX. The X-axis indicates experiment days during the TWINSHIME run. Inulin or AX were administered to the TWINSHIME from day 2 until day 23.
# In addition to the above-mentioned measurements, experiments were performed to quantify the attachment of intestinal bacteria to the mucus layer at the gut wall. As attachment to the gut wall is the first stage of interaction between bacteria and the human host (e.g. immunomodulation, pathogenesis), characterization of the microbial ecology at the site of the gut wall and assessment of changes in this community due to a prebiotic treatment is very important to evaluate the final health effects of a prebiotic treatment. Finally, the effect of the prebiotic treatment with inulin or AX on the composition of the microbial community in both the gut lumen and at the gut wall can be expressed quantitatively in specific indices.
# The Prebiotic Index (PI) describes the increase in the gut lumen in beneficial bacteria, relative to harmful bacteria due to the prebiotic treatment. PI=(Bif/Total)+(Lac/Total)−(Ecol/Total)−(Clos/Total) […]
# For both indices, an increase in the quantitative value is evaluated as positive, with the degree of increase as a parameter for success of the prebiotic treatment (FIG. 4).
substance,measurement,setting,value
inulin,prebiotic effect (relative increase in P and B compared to A) in the colon compartments,"[1]; SHIME, 1.5 g/d",only minor effects were observed in one colon compartment
same,"A ratio (A/(A + P + B)), Ascending colon","[1]; treatment period, 1.5 g/d",0.45
same,"A ratio, Descending colon","[1]; treatment period, 1.5 g/d",0.48
same,"A ratio, Transverse colon","[1]; treatment period, 1.5 g/d",0.43
same,"B ratio, Ascending colon","[1]; treatment period, 1.5 g/d",0.27
same,"B ratio, Descending colon","[1]; treatment period, 1.5 g/d",0.24
same,"B ratio, Transverse colon","[1]; treatment period, 1.5 g/d",0.26
same,"P ratio, Ascending colon","[1]; treatment period, 1.5 g/d",0.29
same,"P ratio, Descending colon","[1]; treatment period, 1.5 g/d",0.28
same,"P ratio, Transverse colon","[1]; treatment period, 1.5 g/d",0.31
same,"A ratio (A/(A + P + B)), Ascending colon",[1]; wash-out period,0.45
same,"A ratio, Descending colon",[1]; wash-out period,0.53
same,"A ratio, Transverse colon",[1]; wash-out period,0.44
same,"B ratio, Ascending colon",[1]; wash-out period,0.20
same,"B ratio, Descending colon",[1]; wash-out period,0.19
same,"B ratio, Transverse colon",[1]; wash-out period,0.21
same,"P ratio, Ascending colon",[1]; wash-out period,0.35
same,"P ratio, Descending colon",[1]; wash-out period,0.28
same,"P ratio, Transverse colon",[1]; wash-out period,0.35
same,composition of the bifidobacterial community in the cecum (DGGE),bifidobacteria,little changes
same,Prebiotic Attachment Index (PAI) after stopping the administration,intestinal bacteria,returned back to baseline
same,Prebiotic Index (PI) after stopping the administration,intestinal bacteria,returned back to baseline
